This is an account of results in PMC11643077, “Synthesis of 1,2,4-Oxadiazin-5(6H)-One Derivatives and Their Biological Investigation as Monoamine Oxidase Inhibitors” (Molecules, 2024).

Where only a bound is given, the exact number is not on record here.

For assay [1], the target named is T1, MAO-B (Homo sapiens, UniProt P27338).
T1 construct: purchased Merck
T1 sequence (P27338 1-520): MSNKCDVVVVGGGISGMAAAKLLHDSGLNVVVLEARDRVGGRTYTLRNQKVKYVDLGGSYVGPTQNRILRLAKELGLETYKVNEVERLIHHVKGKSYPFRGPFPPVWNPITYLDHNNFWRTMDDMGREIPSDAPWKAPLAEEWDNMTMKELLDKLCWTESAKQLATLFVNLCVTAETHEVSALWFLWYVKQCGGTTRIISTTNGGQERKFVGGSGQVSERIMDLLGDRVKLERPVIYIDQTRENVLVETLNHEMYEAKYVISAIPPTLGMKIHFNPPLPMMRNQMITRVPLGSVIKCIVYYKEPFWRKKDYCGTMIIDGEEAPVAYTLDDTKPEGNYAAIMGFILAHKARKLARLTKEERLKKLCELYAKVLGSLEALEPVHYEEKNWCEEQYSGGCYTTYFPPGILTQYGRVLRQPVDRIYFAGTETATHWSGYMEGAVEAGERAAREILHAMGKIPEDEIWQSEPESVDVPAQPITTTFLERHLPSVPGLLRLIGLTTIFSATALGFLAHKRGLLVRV
In words: MAO-B inhibition, recombinant human enzyme, kynuramine substrate, fluorometric end-point. The format is biochemical. Particulars: mean ± SD of triplicate, racemic mixtures, NI = no inhibition at 100 µM. As to the method:
(§1) The in vitro inhibition studies were carried out according to the published procedure, and the inhibition potencies were expressed as the IC50 values (Figure 2). […] A variety of C3 substituents were explored in this study, which included the phenyl, benzyl and 5-methylthiophen-2-yl moieties, while different substituents on the phenyl (e.g., CH3, OCH3, Cl, Br, F, CF3, OCF3, NO2, PhO) were considered.
(§2) The inhibition potencies of the 1,2,4-oxadiazin-5(6H)-one derivatives were determined using commercially available recombinant human MAO-A and MAO-B (Merck) according to the published procedure. Stock solutions of all compounds were prepared in DMSO and added to the enzyme reactions to yield a final concentration of 4% DMSO. […] Kynuramine was used as enzyme substrate for both MAO isoforms and was oxidized to ultimately form 4-hydroxyquinoline, which is a fluorescent metabolite. The concentrations of 4-hydroxyquinoline in the reactions were measured at end-point by fluorescence spectrometry (λex = 310 nm; λem = 400 nm). Using this approach, the rates of kynuramine oxidation by MAO were measured in the presence of different concentrations of the test inhibitors (0.003–100 µM) as well as in the absence of inhibitor. […] IC50 values were estimated from these plots and were reported as the mean ± SD of triplicate determinations.

Assay [2] concerns the target T2, MAO-A (Homo sapiens, UniProt P21397).
T2 construct: purchased Merck
T2 sequence (P21397 1-527): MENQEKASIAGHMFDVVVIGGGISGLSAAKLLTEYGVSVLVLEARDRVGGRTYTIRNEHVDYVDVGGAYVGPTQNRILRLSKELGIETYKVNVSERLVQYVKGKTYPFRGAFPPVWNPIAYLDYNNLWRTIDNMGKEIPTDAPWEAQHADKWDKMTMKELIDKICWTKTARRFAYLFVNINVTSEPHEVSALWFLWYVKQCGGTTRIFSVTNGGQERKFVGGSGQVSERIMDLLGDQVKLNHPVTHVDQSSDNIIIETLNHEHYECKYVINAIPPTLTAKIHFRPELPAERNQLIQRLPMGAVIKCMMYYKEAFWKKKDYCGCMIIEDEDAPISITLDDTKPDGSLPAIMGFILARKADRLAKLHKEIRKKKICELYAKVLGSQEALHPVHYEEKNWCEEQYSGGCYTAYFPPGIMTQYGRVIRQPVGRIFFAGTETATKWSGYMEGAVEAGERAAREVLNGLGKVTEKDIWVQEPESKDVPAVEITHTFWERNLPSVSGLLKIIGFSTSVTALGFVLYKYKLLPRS
In words: MAO-A inhibition, recombinant human enzyme, kynuramine substrate, fluorometric end-point. Conditions: mean ± SD of triplicate, racemic mixtures, NI = no inhibition at 100 µM. The format is biochemical. Here is the method:
as §1, §2

In the case of `O=C1CON=C(c2ccc(Br)cc2)N1` [Compound 3b, 3-(4-Bromophenyl)-4H-1,2,4-oxadiazin-5(6H)-one], the IC50 came to 13.6 ± 6.63 µM in assay [1] and 14.2 ± 0.94 µM in assay [2].
For `Cc1ccc(C2=NOC(C)C(=O)N2)cc1` (stereo not shown) [Compound 4a, 6-Methyl-3-(4-methylphenyl)-4H-1,2,4-oxadiazin-5(6H)-one], in that order: 24.5 ± 0.198 µM and 67 ± 0.007 µM.
On the same counts, the results for `CC1ON=C(c2ccc(Br)cc2)NC1=O` (stereo not shown) [Compound 4b, 3-(4-Bromophenyl)-6-methyl-4H-1,2,4-oxadiazin-5(6H)-one] are 27.1 ± 3.37 µM and 37.4 ± 4.18 µM.
For `COc1ccc(C2=NOC(C)C(=O)N2)cc1` (stereo not shown) [Compound 4e, 3-(4-Methoxyphenyl)-6-methyl-4H-1,2,4-oxadiazin-5(6H)-one], the IC50 in assay [1] came to 20 ± 0.643 µM; in assay [2], 51.2 ± 15.1 µM.
On the same counts, the results for `CCC1ON=C(c2ccc(C)cc2)NC1=O` (stereo not shown) [Compound 5a, 6-Ethyl-3-(4-methylphenyl)-4H-1,2,4-oxadiazin-5(6H)-one] are 4.28 ± 0.318 µM and over 100 µM.
Turning to `CCC1ON=C(c2ccc(Br)cc2)NC1=O` (stereo not shown) [Compound 5b, 3-(4-Bromophenyl)-6-ethyl-4H-1,2,4-oxadiazin-5(6H)-one], the IC50 in assay [1] was 5.11 ± 0.308 µM; in assay [2], 35.4 ± 1.54 µM.
As for `CCC1ON=C(c2ccccc2)NC1=O` (stereo not shown) [Compound 5g, 6-Ethyl-3-phenyl-4H-1,2,4-oxadiazin-5(6H)-one], the IC50 in assay [1] and in assay [2] was over 100 µM each time.
Turning to `COC(=O)CC1ON=C(c2ccccc2)NC1=O` (stereo not shown) [Compound 6a], the IC50 in assay [1] and in assay [2] was over 100 µM in each case.
Consider `COC(=O)CC1ON=C(c2ccccn2)NC1=O` (stereo not shown) [Compound 6b], for which the IC50 is 23.6 ± 1.11 µM in assay [1] and 34.2 ± 6.15 µM in assay [2].
For `COC(=O)CC1ON=C(c2ccc([N+](=O)[O-])cc2)NC1=O` (stereo not shown) [Compound 6c], in that order: 52.3 ± 12.7 µM and over 100 µM.
On the same counts, the results for `COC(=O)CC1ON=C(c2ccc(C)s2)NC1=O` (stereo not shown) [Compound 6d] are 33.9 ± 1.44 µM and 40.7 ± 8.83 µM.
For `COC(=O)CC1ON=C(c2ccncc2)NC1=O` (stereo not shown) [Compound 6e], in that order: over 100 µM and over 100 µM.
Consider `COC(=O)CC1ON=C(c2ccc(C(F)(F)F)cc2)NC1=O` (stereo not shown) [Compound 6f], for which the values for the IC50 in assay [1] and in assay [2] were 22.9 ± 5.27 µM and over 100 µM, respectively.
For `Cc1ccc(C2=NOC(Cc3nc(-c4ccc(C)cc4)no3)C(=O)N2)cc1` (stereo not shown) [Compound 7a], the IC50 in assay [2] was 54.3 ± 14.3 µM.
Regarding `O=C1NC(c2ccc(F)cc2)=NOC1Cc1nc(-c2ccc(F)cc2)no1` (stereo not shown) [Compound 7b], the results for the IC50 in assay [1] and in assay [2] were 14.3 ± 3.27 µM and over 100 µM, respectively.
For `O=C1NC(c2ccc([N+](=O)[O-])cc2)=NOC1Cc1nc(-c2ccc([N+](=O)[O-])cc2)no1` (stereo not shown) [Compound 7c], in that order: 0.371 ± 0.037 µM and 12.9 ± 0.014 µM.
As to `O=C1NC(c2ccc(C(F)(F)F)cc2)=NOC1Cc1nc(-c2ccc(C(F)(F)F)cc2)no1` (stereo not shown) [Compound 7d], the IC50 is 46.3 ± 17.8 µM in assay [1] and over 100 µM in assay [2].
In the case of `Cc1ccc(C2=NOC(CC(=O)O)C(=O)N2)cc1` (stereo not shown) [Compound 8a], in assay [2], the IC50 is over 100 µM.
With `O=C(O)CC1ON=C(c2ccc(Oc3ccccc3)cc2)NC1=O` (stereo not shown) [Compound 8b], the IC50 in assay [1] is over 100 µM; in assay [2], 12.7 ± 1.34 µM.
On the same counts, the results for `COc1ccc(C2=NOC(CC(=O)O)C(=O)N2)cc1` (stereo not shown) [Compound 8c] are over 100 µM and over 100 µM.
For the compound `O=C(O)CC1ON=C(c2ccc(C(F)(F)F)cc2)NC1=O` (stereo not shown) [Compound 8d], the 50% inhibitory concentration (IC50) in assay [1] and in assay [2] was over 100 µM throughout.
In the case of `O=C(O)CC1ON=C(c2cc(Cl)cc(Cl)c2)NC1=O` (stereo not shown) [Compound 8e], the IC50 in assay [1] is 62.2 ± 15.7 µM; in assay [2] it was over 100 µM.
With `COc1ccc2c(c1)[nH]c1c(C)nccc12` [Harmine, reference compound], the IC50 in assay [1] is over 100 µM.
